Data from US20060122191A1, “N-(indolethyl-)cycloamine compounds” (priority 2002, published 2006).
Where a name gives a salt, the structure may show the parent alone. Read-outs that look alike come from different tables or passages of the source.

Key:
[1] = target: T1, serotonin reuptake (SSRI) (Rattus norvegicus, UniProt P31652); test: Serotonin reuptake inhibition (SSRI), receptor binding studies; type: biochemical
T1 construct: from tissue
From the text: (§1) In-vitro evidence of interaction with the above-mentioned receptors can be provided, for example, as described in the following references: • 5-HT1A: Cossery J. M., Gozlan H., Spampinato U., Perdicakis C., Guillaumet G., Pichat L., Hamon M., 1987. The selective labeling of central 5-HT1A receptor binding sites by [3H]5-methoxy-3-(di-n-propylamino)chroman. Eur. J. Pharmacol. 140,143-55. • 5-HT2A: Klockow M., Greiner H. E., Haase A., Schmitges C.-J., Seyfried C. 1986. Studies on the receptor profile of bisoprolol. Arzneimittelforschung 36,197-200. • SSRI: Wong, D T, Bymaster, F P, Mayle, D A. Reid, L R, Krushinski, J H, Robertson, D W. LY248686, a new inhibitor of serotonin and norepinephrine uptake. Neuropsychopharmacology 8, 23-33, 1993
(§2) As illustrative of two compounds of the formula I, receptor binding constants determined by the test systems described at the outset are indicated below: […]

5-HT1A = target: T2, 5-HT1A (Rattus norvegicus, UniProt P19327); test: 5-HT1A receptor binding
T2 construct: from tissue
T2 sequence (P19327 1-422): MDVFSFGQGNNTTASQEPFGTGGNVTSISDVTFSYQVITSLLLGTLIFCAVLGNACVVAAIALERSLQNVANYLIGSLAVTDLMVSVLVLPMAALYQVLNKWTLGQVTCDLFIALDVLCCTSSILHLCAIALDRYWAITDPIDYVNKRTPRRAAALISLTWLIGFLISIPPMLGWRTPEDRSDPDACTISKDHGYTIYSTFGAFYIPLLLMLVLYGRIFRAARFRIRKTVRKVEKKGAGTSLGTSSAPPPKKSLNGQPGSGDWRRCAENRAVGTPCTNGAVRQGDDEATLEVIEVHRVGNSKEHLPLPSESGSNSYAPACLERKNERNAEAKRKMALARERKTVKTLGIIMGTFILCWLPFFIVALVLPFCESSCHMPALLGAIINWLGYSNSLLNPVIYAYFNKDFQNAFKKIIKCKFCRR
From the text: as §1, §2

5-HT2A = 5-HT2A (UniProt P14842); test: 5-HT2A receptor binding
From the text: as §1, §2

T1 sequence (P31652 whole entry): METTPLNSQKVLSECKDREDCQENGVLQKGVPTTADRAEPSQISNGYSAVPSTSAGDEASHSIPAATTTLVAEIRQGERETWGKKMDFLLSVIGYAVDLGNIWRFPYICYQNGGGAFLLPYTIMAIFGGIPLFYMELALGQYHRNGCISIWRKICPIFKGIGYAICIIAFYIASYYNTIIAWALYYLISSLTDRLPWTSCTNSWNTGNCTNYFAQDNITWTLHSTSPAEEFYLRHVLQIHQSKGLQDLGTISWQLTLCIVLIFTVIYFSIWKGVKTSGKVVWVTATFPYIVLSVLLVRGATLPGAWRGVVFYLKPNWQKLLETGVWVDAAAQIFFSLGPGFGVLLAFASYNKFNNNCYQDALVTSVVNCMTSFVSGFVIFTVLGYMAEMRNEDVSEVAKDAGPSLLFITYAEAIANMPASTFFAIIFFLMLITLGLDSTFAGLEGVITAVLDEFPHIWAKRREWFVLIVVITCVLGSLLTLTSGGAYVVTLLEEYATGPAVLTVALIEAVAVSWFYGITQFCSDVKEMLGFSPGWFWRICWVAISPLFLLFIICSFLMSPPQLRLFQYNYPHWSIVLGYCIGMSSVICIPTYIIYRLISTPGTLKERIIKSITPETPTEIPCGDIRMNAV

## N#Cc1ccc2[nH]cc(CCN3CCN(c4cccc5c4OCCO5)CC3)c2c1 (as salt: hydrochloride) [a), 3-{2-[4-(2,3-Dihydrobenzo-1,4-dioxin-5-yl)piperazin-1-yl]ethyl}-1H-indole-5-carbonitrile]
other
  melting point: 277.5 to 278.5 °C

## N#Cc1ccc2[nH]cc(CCN3CCN(c4cccc5nsnc45)CC3)c2c1 [b), 3-[2-(4-Benzo-1,2,5-thiadiazol-4-yl-piperazin-1-yl)ethyl]-1H-indole-5-carbonitrile]
[1]
  Ki: 4.3 nM
5-HT1A; test system per Cossery et al. 1987, read-out: receptor binding constant 5-HT1A
  Ki: 110 nM
5-HT2A; read-out: receptor binding constant 5-HT2A; test system per Klockow et al. 1986
  Ki: 7.3 nM

## N#Cc1ccc2[nH]cc(CCN3CCN(c4cccc5c4OCCO5)CC3)c2c1 [a), 3-{2-[4-(2,3-Dihydrobenzo-1,4-dioxin-5-yl)piperazin-1-yl]ethyl}-1H-indole-5-carbonitrile]
[1]; test system per Wong et al. 1993, read-out: receptor binding constant SSRI
  Ki: 11 nM
5-HT1A
  Ki: 17 nM
5-HT2A; test system per Klockow et al. 1986; read-out: receptor binding constant 5-HT2A
  Ki: 11 nM
